From paper PMC4188605, “Biochemical and Pharmacological Characterization of the Human Lymphocyte Antigen B-Associated Transcript 5 (BAT5/ABHD16A)” (PLoS ONE, 2014)
Read-outs that look alike come from different tables or passages of the source.

What was measured:
hBAT5 [1] = target: T1, hBAT5 (Homo sapiens, UniProt O95870); assay: hBAT5 substrate hydrolysis and Michaelis-Menten kinetics (glycerol assay, hBAT5-HEK293 lysates); details: 25 µM substrate
T1 sequence (O95870 1-558): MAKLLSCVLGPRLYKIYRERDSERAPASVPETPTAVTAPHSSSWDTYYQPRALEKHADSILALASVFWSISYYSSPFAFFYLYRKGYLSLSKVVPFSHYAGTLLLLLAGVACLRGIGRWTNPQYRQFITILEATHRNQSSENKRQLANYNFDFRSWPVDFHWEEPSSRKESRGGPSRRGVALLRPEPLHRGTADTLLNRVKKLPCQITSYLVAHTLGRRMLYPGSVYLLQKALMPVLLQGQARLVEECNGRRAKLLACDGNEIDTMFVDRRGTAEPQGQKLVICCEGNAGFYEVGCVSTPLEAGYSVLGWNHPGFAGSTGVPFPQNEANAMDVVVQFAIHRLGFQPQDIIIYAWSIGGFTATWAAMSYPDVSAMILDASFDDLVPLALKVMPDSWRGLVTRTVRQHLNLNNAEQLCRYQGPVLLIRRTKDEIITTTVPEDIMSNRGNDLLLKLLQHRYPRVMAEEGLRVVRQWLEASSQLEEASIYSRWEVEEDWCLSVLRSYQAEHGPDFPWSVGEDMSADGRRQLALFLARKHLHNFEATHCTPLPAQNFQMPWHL

hBAT5 [2] = target: T1, hBAT5; assay: Inhibition of 1-LG hydrolysis in hBAT5-HEK293 lysates (fluorescent glycerol assay); format: biochemical; parameters: host or cells: HEK293; details: for hBAT5 inhibitory activity (in words): 1-LG hydrolysis; for remaining activity at 10 µM: at 10^-5 M; for fold decrease in activity when methyl (40) is replaced: 5-position substituent, relative to 40
[3] = 1-LG 25 µM, 30 min inhibitor pretreatment, monitored 90 min, mean, n=3, read-out: IC50
[4] = printed as LogIC50 with negative sign, 1-LG 25 µM, 30 min pretreatment, Figures 9 and 10, read-out: LogIC50 Mean ± SEM, n=3 (converted)

With `CCCCCCCCCCCCCCCCCC(=O)OC[C@@H](O)CO` [1-SG] the “hydrolysis by hBAT5 (substrate utilization, in words)” value (shortened to “hydrolysis by hBAT5”) (hBAT5 [1]; with 0.5% BSA, 60 min) was “not utilized”.
In the case of `CCCCCCCCCCCCCCCC(=O)OC(CO)CO` [MAGs C16∶0, 2-palmitoyl-rac–glycerol], the “hydrolysis by hBAT5” value (hBAT5 [1]; without BSA) is reported as “barely detectable hydrolysis”.
In the case of `CCCCC[C@H](O)/C=C/[C@@H]1[C@@H](C/C=C\CCCC(=O)OCC(O)CO)[C@@H](O)C[C@H]1O` (stereo partly drawn) [PG-F2α-G, prostaglandin F2α-1-glycerol ester], the “hydrolysis by hBAT5” value (hBAT5 [1]; with 0.5% BSA, 60 min) is reported as “low”.
In the case of `CCCCC[C@H](O)/C=C/[C@H]1C(=O)C[C@H](O)[C@@H]1C/C=C\CCCC(=O)OCC(O)CO` (stereo partly drawn) [PGD2-G, prostaglandin D2-1-glycerol ester], the “hydrolysis by hBAT5” value (hBAT5 [1]; with 0.5% BSA, 60 min) is reported as “to lesser extend”.
`CCCCC[C@H](O)/C=C/[C@H]1[C@H](O)CC(=O)[C@@H]1C/C=C\CCCC(=O)OCC(O)CO` (stereo partly drawn) [PGE2-G, prostaglandin E2-1-glycerol ester] was tested, and the “hydrolysis by hBAT5” value (hBAT5 [1]; with 0.5% BSA, 60 min) was “low”.
For `COc1nn(-c2ccc([N+](=O)[O-])cc2)c(=O)o1` [compound 41, 5-Methoxy-3-(4-nitrophenyl)-1,3,4-oxadiazol-2(3H)-one], the IC50 (hBAT5 [2]; [3]) was 339 nM.
For `COc1nn(-c2ccccc2F)c(=O)o1` [compound 42], the IC50 (hBAT5 [2]; [3]) was 50 nM.
Molecule `COc1nn(-c2cccc(F)c2)c(=O)o1` [compound 43] has an IC50 (hBAT5 [2]; [4]) of 41.7 nM.
With `COc1nn(-c2ccc(Br)cc2)c(=O)o1` [compound 45] the IC50 (hBAT5 [2]; [3]) was 110 nM.
Work on `COc1nn(-c2ccc(I)cc2)c(=O)o1` [compound 46] yielded an IC50 (hBAT5 [2]; [3]) of 355 nM.
`COc1nn(-c2cccc(C#N)c2)c(=O)o1` [compound 47] gave an IC50 (hBAT5 [2]; [3]) of 78 nM.
`COc1nn(-c2ccccc2C)c(=O)o1` [compound 48] was tested, and the “hBAT5 inhibitory activity (in words)” value (hBAT5 [2]) was “inactive” and the remaining activity at 1 µM (hBAT5 [2]; at 10^-6 M, 1-LG 25 µM) was 93.4 ± 1.9%.
`COc1nn(Cc2cccc(Oc3ccccc3)c2)c(=O)o1` [compound 49] was tested, and the “hBAT5 inhibitory activity (in words)” value (hBAT5 [2]) was “loss of hBAT5 inhibitory activity” and the remaining activity at 10 µM (hBAT5 [2]; 1-LG 25 µM) was 102 ± 8.2%.
For `COc1nn(Cc2cccc([N+](=O)[O-])c2)c(=O)o1` [compound 50, 5-Methoxy-3-(3-nitrobenzyl)-1,3,4-oxadiazol-2(3H)-one], the “hBAT5 inhibitory activity (in words)” value (hBAT5 [2]) was “loss of hBAT5 inhibitory activity” and the remaining activity at 10 µM (hBAT5 [2]; 1-LG 25 µM) was 99.3 ± 4.7%.
With `CCOc1nn(-c2cccc([N+](=O)[O-])c2)c(=O)o1` [compound 51, 5-Ethoxy-3-(3-nitrophenyl)-1,3,4-oxadiazol-2(3H)-one] the IC50 (hBAT5 [2]; [3]) was 126 nM and the “fold decrease in activity when methyl (40) is replaced” value (shortened to “fold decrease in activity when methyl”) (hBAT5 [2]) was “about twofold”.
With `O=c1oc(Oc2ccccc2)nn1-c1cccc([N+](=O)[O-])c1` [compound 52, 3-(3-Nitrophenyl)-5-phenoxy-1,3,4-oxadiazol-2(3H)-one] the IC50 (hBAT5 [2]; [3]) was 138 nM and the “fold decrease in activity when methyl” value (hBAT5 [2]) was “about twofold”.
`O=c1oc(OCc2ccccc2)nn1-c1cccc([N+](=O)[O-])c1` [compound 53, 5-(Benzyloxy)-3-(3-nitrophenyl)-1,3,4-oxadiazol-2(3H)-one] was tested, and the “fold decrease in activity when methyl” value (hBAT5 [2]) was 24 fold and the IC50 (hBAT5 [2]; [4]) was 1480 nM.
For `COc1ccc(Oc2nn(-c3cccc([N+](=O)[O-])c3)c(=O)o2)cc1` [compound 54, 5-(4-Methoxyphenoxy)-3-(3-nitrophenyl)-1,3,4-oxadiazol-2(3H)-one], the IC50 (hBAT5 [2]; [3]) was 631 nM and the “fold decrease in activity when methyl” value (hBAT5 [2]) was 10 fold.
In the case of `O=c1oc(Oc2ccc([N+](=O)[O-])cc2)nn1-c1cccc([N+](=O)[O-])c1` [compound 55, 5-(4-Nitrophenoxy)-3-(3-nitrophenyl)-1,3,4-oxadiazol-2(3H)-one], the “hBAT5 inhibitory activity (in words)” value (hBAT5 [2]) is reported as “weakest inhibitor of this series” and the remaining activity at 10 µM (hBAT5 [2]; 1-LG 25 µM) is reported as 50.5 ± 3.7%.
